This passage reports IC50 results from patent publication US20260355212A1 (priority 2022, published 2026).

SMILES strings stand for the structures. Where two headings read alike, the source gives them in different places.

Test [1] addresses HCoV-HKU1 Mpro (Human coronavirus HKU1, UniProt P0C6X2). Briefly: HCoV-HKU1 Mpro enzymatic inhibition assay (fluorescence). Type of test: biochemical. The gist of the method: (§1)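 Fluorescence at 340/490 nm after 60 min substrate cleavage at 30 °C is the read-out. Purified E. coli-expressed protease had been pre-incubated 30 min at room temperature with 10-dose, 3-fold compound series in duplicate.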

The target of test [2] is MERS Mpro (Middle East respiratory syndrome-related coronavirus, UniProt K9N7C7). Briefly: biochemical. More on the design: species or system MERS-CoV.
For test [3], the target named is SARS-CoV-2 Mpro (Severe acute respiratory syndrome coronavirus 2, UniProt P0DTD1). Briefly: SARS-CoV-2 Mpro enzymatic inhibition assay (fluorescence). Type of test: biochemical. The gist of the method:
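Recombinant Mpro expressed in E. coli was preincubated 30 min at room temperature with 10-point, 3-fold serially diluted compound in duplicate. Fluorogenic substrate was then added and incubated 60 min at 30° C, and fluorescence read at Ex/Em 340/490 nm. IC50 came from a four-parameter fit of % inhibition.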

For test [4], the target named is HCoV-NL63 Mpro (Human coronavirus NL63, UniProt P0C6X5). The test can be described thus: HCoV-NL63 Mpro enzymatic inhibition assay (fluorescence). It counts as biochemical. Summed up:
as §1

In test [5] the target is HCoV-OC43 Mpro (Human coronavirus OC43, UniProt P0C6X6). Briefly: HCoV-OC43 Mpro enzymatic inhibition assay (fluorescence). Type of test: biochemical. The gist of the method: as §1
Test [6] concerns the target HCoV-229E Mpro (Human coronavirus 229E, UniProt P0C6X1). Briefly: HCoV-229E Mpro enzymatic inhibition assay (fluorescence). It counts as biochemical.
Test [7] has as its target SARS-CoV-1 Mpro (Severe acute respiratory syndrome coronavirus, UniProt P0C6X7). Briefly: biochemical.

By IC50 is commonly meant the point on the concentration scale where inhibition reaches its midpoint.

HCoV-229E Mpro, sequence (P0C6X1 2966-3267 limits assumed): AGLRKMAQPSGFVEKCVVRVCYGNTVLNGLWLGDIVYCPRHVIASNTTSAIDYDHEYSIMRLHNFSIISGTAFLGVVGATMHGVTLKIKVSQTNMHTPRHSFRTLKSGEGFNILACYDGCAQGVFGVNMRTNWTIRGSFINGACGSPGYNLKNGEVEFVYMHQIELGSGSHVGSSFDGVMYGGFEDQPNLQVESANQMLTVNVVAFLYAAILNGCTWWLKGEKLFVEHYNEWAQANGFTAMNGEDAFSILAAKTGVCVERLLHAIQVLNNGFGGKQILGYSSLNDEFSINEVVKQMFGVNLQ
HCoV-NL63 Mpro, sequence (P0C6X5 2940-3242 limits assumed): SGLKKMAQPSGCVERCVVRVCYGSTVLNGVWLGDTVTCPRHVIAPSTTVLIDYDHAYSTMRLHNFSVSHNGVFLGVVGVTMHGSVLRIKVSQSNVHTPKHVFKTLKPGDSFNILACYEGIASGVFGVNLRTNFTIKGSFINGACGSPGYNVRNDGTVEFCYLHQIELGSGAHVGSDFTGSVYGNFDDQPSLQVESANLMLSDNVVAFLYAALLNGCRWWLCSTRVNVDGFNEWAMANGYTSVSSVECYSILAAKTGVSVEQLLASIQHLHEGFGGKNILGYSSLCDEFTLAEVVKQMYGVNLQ
HCoV-HKU1 Mpro, sequence (P0C6X2 3335-3637 limits assumed): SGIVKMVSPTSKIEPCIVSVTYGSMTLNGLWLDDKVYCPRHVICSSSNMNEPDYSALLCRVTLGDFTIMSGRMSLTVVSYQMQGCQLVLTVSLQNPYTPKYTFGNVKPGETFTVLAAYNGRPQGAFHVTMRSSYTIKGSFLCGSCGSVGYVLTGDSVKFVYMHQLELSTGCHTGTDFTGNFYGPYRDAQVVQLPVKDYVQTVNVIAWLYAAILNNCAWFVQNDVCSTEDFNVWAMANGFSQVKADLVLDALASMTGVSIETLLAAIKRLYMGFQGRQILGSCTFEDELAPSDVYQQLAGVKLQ
MERS Mpro, sequence (K9N7C7 3248-3553 limits assumed): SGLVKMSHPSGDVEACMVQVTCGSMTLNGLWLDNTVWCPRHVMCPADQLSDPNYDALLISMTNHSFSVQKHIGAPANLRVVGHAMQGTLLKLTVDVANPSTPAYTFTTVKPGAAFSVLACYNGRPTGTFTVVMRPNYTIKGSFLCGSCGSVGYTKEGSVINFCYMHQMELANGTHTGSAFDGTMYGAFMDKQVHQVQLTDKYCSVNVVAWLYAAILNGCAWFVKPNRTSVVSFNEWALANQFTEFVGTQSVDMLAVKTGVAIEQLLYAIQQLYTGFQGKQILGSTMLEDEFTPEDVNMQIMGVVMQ
HCoV-OC43 Mpro, sequence (P0C6X6 3247-3549 limits assumed): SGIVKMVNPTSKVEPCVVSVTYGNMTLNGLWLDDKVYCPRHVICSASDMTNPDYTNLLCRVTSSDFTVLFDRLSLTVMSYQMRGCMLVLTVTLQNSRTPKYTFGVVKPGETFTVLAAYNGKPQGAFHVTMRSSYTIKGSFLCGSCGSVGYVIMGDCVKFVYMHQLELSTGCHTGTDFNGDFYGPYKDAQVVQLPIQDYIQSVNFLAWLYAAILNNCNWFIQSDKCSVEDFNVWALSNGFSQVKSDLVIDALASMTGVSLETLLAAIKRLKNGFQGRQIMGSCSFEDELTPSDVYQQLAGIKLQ

As for `CC1(C)[C@@H]2[C@@H](C(=O)N[C@H](C#N)C[C@@H]3CCNC3=O)N(C(=O)C3(c4ccccc4)CCCC3)C[C@@H]21` [Compound 136, (1R,2S,5S)—N—((S)-1-Cyano-2-((S)-2-oxopyrrolidin-3-yl)ethyl)-6,6-dimethyl-3-(1-phenylcyclopentanecarbonyl)-3-azabicyclo[3.1.0]hexane-2-carboxamide], the IC50 in test [1] was found to be 1630 nM; in test [2], 8410 nM; in test [3], 470 nM; in test [4], 13900 nM; in test [5], 3980 nM; in test [6] it was 3050 nM. Moreover, inhibition in test [7] was half-maximal at 767 nM (IC50).
With `CC1(C)[C@@H]2[C@@H](C(=O)N[C@H](C=O)C[C@@H]3CCNC3=O)N(C(=O)CC3CCOCC3)C[C@@H]21` [Compound 86, (1R,2S,5S)-6,6-Dimethyl-N—((S)-1-oxo-3-((S)-2-oxopyrrolidin-3-yl)propan-2-yl)-3-(2-(tetrahydro-2H-pyran-4-yl)acetyl)-3-azabicyclo[3.1.0]hexane-2-carboxamide], the IC50 in test [1] amounted to 33.7 nM; in test [2], 318 nM; in test [3], 39.7 nM; in test [4], 78.8 nM; in test [5] it was 52.5 nM; in test [6], 34.2 nM. For the same compound, in test [7], the IC50 worked out at 69.5 nM.
For `CC1(C)[C@@H]2[C@@H](C(=O)N[C@H](C=O)C[C@@H]3CCNC3=O)N(C(=O)c3cc4c(F)ccc(F)c4[nH]3)C[C@@H]21` [Compound 13, (1R,2S,5S)-3-(4,7-difluoro-1H-indole-2-carbonyl)-6,6-dimethyl-N—((S)-1-oxo-3-((S)-2-oxopyrrolidin-3-yl)propan-2-yl)-3-azabicyclo[3.1.0]hexane-2-carboxamide], the IC50 in test [1] came to 38.2 nM; in test [2] it was 372 nM; in test [3], 14 nM; in test [4], 76.3 nM; in test [5] it was 69 nM; in test [6] it was 48.1 nM. The same compound had an IC50 in test [7] of 37.7 nM.
Turning to `Cn1c(C(=O)N2C[C@H]3[C@@H]([C@H]2C(=O)N[C@H](C=O)C[C@@H]2CCNC2=O)C3(C)C)cc2c(F)cccc21` [Compound 100, (1R,2S,5S)-3-(4-Fluoro-1-methyl-1H-indole-2-carbonyl)-6,6-dimethyl-N—((S)-1-oxo-3-((S)-2-oxopyrrolidin-3-yl)propan-2-yl)-3-azabicyclo[3.1.0]hexane-2-carboxamide], the IC50 is 94.4 nM in test [1]; 877 nM in test [2]; 54 nM in test [3]; 398 nM in test [4]; 133 nM in test [5]; 106 nM in test [6]. This compound came in with an IC50 in test [7] of 92.5 nM.
Turning to `O=C[C@H](C[C@@H]1CCNC1=O)NC(=O)[C@@H]1CC(F)(F)CN1C(=O)c1cc2ccccc2[nH]1` [Compound 115, (S)-4,4-difluoro-1-(1H-Indole-2-carbonyl)-N—((S)-1-oxo-3-((S)-2-oxopyrrolidin-3-yl)propan-2-yl)pyrrolidine-2-carboxamide], the IC50 amounted to 15 nM in test [1]; 303 nM in test [2]; 102 nM in test [3]; 105 nM in test [4]; 87 nM in test [5]; 53 nM in test [6]. In test [7], this compound returned an IC50 of 250 nM.
Regarding `O=C[C@H](C[C@@H]1CCNC1=O)NC(=O)[C@@H]1C[C@@H]2CCC[C@@H]2N1C(=O)c1cc2ccccc2[nH]1` [Compound 129, (2S,3aS,6aS)-1-(1H-Indole-2-carbonyl)-N—((S)-1-oxo-3-((S)-2-oxopyrrolidin-3-yl)propan-2-yl)octahydrocyclopenta[b]pyrrole-2-carboxamide], the IC50 in test [1] came out at 76 nM; in test [2] it was 1110 nM; in test [3], 351 nM; in test [4], 51 nM; in test [5], 166 nM; in test [6], 38 nM. In addition, the IC50 in test [7] was 874 nM.
In the case of `CC1(C)[C@@H]2[C@@H](C(=O)N[C@H](C=O)C[C@@H]3CCNC3=O)N(C(=O)CC3CCCCC3(F)F)C[C@@H]21` (stereo partly drawn) [Compound 64, (1R,2S,5S)-3-(2-(2,2-Difluorocyclohexyl)acetyl)-6,6-dimethyl-N—((S)-1-oxo-3-((S)-2-oxopyrrolidin-3-yl)propan-2-yl)-3-azabicyclo[3.1.0]hexane-2-carboxamide], the IC50 in test [1] stood at 46.5 nM; in test [2] it was 224 nM; in test [3], 27 nM; in test [4], 105 nM; in test [5] it was 65.8 nM; in test [6], 53.2 nM. The compound further returned an IC50 in test [7] of 46.6 nM.
Turning to `O=C[C@H](C[C@@H]1CCNC1=O)NC(=O)[C@@H]1C[C@@H](Cc2ccccc2Cl)CN1C(=O)c1cc2ccccc2[nH]1` [Compound 109, (2S,4R)-4-(2-Chlorobenzyl)-1-(1H-indole-2-carbonyl)-N—((S)-1-oxo-3-((S)-2-oxopyrrolidin-3-yl)propan-2-yl)pyrrolidine-2-carboxamide], the IC50 in test [1] stood at 48.9 nM; in test [2] it was 4320 nM; in test [3] it was 80.8 nM; in test [4], 2320 nM; in test [5], 271 nM; in test [6] it was 374 nM. This compound displayed a half-inhibitory concentration (IC50) in test [7] of 231 nM.
`CC1(C)[C@@H]2[C@@H](C(=O)N[C@H](C#N)C[C@@H]3CCNC3=O)N(C(=O)c3cc4cccc(Cl)c4[nH]3)C[C@@H]21` [Compound 132, (1R,2S,5S)-3-(7-Chloro-1H-indole-2-carbonyl)-N—((S)-1-cyano-2-((S)-2-oxopyrrolidin-3-yl)ethyl)-6,6-dimethyl-3-azabicyclo[3.1.0]hexane-2-carboxamide]: the IC50 came out at 1910 nM in test [1]; 5440 nM in test [2]; 434 nM in test [3]; 3970 nM in test [4]; 3010 nM in test [5]; 1210 nM in test [6]. It took 873 nM to reach half-maximal inhibition in test [7] (IC50).
Regarding `CC1CC(C(=O)N2C[C@H]3[C@@H]([C@H]2C(=O)N[C@H](C=O)C[C@@H]2CCNC2=O)C3(C)C)C1` (stereo partly drawn) [Compound 110, (1R,2S,5S)-6,6-Dimethyl-3-(3-methylcyclobutanecarbonyl)-N—((S)-1-oxo-3-((S)-2-oxopyrrolidin-3-yl)propan-2-yl)-3-azabicyclo[3.1.0]hexane-2-carboxamide], the IC50 was determined as 230 nM in test [1]; 1160 nM in test [2]; 82.2 nM in test [3] (mean, 25 nM protein, 25 μM substrate, 30 min pre-incubation, 60 min at 30° C., read-out: Mpro_SARS-CoV-2 mean IC50); 1590 nM in test [4]; 318 nM in test [5]; 105 nM in test [6]. The IC50 in test [7] came out at 205 nM.
As to `COc1ccc(Cl)c2[nH]c(C(=O)N3C[C@H]4[C@@H]([C@H]3C(=O)N[C@H](C=O)C[C@@H]3CCNC3=O)C4(C)C)cc12` [Compound 28, (1R,2S,5S)-3-(7-chloro-4-methoxy-1H-indole-2-carbonyl)-6,6-dimethyl-N—((S)-1-oxo-3-((S)-2-oxopyrrolidin-3-yl)propan-2-yl)-3-azabicyclo[3.1.0]hexane-2-carboxamide], the IC50 came to 19.9 nM in test [1]; 224 nM in test [2]; 18 nM in test [3]; 50.9 nM in test [4]; 43.2 nM in test [5]; 35.6 nM in test [6]. Moreover, in test [7], the IC50 is 26.9 nM.
`CC1(C)[C@@H]2[C@@H](C(=O)N[C@H](C=O)C[C@@H]3CCNC3=O)N(C(=O)c3cc4sccc4[nH]3)C[C@@H]21` [Compound 30, (1R,2S,5S)-6,6-dimethyl-N—((S)-1-oxo-3-((S)-2-oxopyrrolidin-3-yl)propan-2-yl)-3-(4H-thieno[3,2-b]pyrrole-5-carbonyl)-3-azabicyclo[3.1.0]hexane-2-carboxamide]: the IC50 in test [1] worked out at 26 nM; in test [2], 239 nM; in test [3], 18.6 nM; in test [4], 49.7 nM; in test [5], 43.8 nM; in test [6], 24.5 nM. For the same compound, the IC50 in test [7] stood at 51.1 nM.
As to `O=C[C@H](C[C@@H]1CCNC1=O)NC(=O)[C@@H]1[C@H]2CCC[C@H]2CN1C(=O)c1cc2ccccc2[nH]1` [Compound 26, (1S,3aR,6aS)-2-(1H-indole-2-carbonyl)-N—((S)-1-oxo-3-((S)-2-oxopyrrolidin-3-yl)propan-2-yl)octahydrocyclopenta[c]pyrrole-1-carboxamide], the IC50 is 20.7 nM in test [1]; 173 nM in test [2]; 16.8 nM in test [3]; 37.8 nM in test [4]; 28.6 nM in test [5]; 42.7 nM in test [6]. Further, in test [7], half-maximal inhibition (IC50) was put at 93.7 nM.
As for `O=C[C@H](C[C@@H]1CCNC1=O)NC(=O)[C@@H]1C[C@@H](F)CN1C(=O)c1cc2ccccc2[nH]1` [Compound 98, (2S,4R)-4-fluoro-1-(1H-Indole-2-carbonyl)-N—((S)-1-oxo-3-((S)-2-oxopyrrolidin-3-yl)propan-2-yl)pyrrolidine-2-carboxamide], the IC50 turned out to be 7 nM in test [1]; 518 nM in test [2]; 51.1 nM in test [3]; 105 nM in test [4]; 81 nM in test [5]; 57 nM in test [6]. Besides, the IC50 in test [7] was 206 nM.
